Experimental data reported in patent US20240299416A1, “TREATMENT OF NF-kB-MEDIATED DISEASE” (ReveraGen BioPharma, Inc., priority 2021, published 2024).
Read-outs that look alike come from different tables or passages of the source. One block for each molecule: values may come before it.

Assays:
[1] = cited from earlier work
[2] = Griggs et al. 2016 double-blind trial, 12 months treatment, cited from earlier work
[3] = molecular target: T1, mineralocorticoid receptor (Homo sapiens, UniProt P08235); details: cited from earlier work
T1 sequence (P08235 1-984): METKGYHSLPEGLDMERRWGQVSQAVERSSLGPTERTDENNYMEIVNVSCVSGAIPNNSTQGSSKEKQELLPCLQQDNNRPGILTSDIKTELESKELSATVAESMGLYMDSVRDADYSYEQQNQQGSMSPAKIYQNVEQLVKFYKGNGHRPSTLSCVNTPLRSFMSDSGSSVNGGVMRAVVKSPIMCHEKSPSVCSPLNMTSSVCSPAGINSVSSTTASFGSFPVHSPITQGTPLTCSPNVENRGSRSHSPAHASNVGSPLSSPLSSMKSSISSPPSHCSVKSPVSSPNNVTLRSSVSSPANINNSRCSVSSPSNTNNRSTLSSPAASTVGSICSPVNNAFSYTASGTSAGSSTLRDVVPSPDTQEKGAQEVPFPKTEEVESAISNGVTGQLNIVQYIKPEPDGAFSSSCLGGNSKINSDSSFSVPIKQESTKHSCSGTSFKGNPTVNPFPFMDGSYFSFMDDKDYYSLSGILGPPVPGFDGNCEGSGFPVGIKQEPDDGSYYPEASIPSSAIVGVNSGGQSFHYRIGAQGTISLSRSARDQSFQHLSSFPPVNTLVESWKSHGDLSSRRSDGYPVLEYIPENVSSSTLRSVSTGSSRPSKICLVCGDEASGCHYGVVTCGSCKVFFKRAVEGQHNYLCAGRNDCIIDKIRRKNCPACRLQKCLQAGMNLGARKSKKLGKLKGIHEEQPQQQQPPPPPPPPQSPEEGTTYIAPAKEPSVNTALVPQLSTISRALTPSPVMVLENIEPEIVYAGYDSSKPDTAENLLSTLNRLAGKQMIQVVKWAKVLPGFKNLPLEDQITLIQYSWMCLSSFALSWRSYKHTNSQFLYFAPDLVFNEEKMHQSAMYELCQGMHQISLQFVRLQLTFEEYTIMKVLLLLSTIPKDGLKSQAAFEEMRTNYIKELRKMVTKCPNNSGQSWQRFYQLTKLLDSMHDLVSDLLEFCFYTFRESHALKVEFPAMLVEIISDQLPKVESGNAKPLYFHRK

[4] = VBP15-004 adverse events at 24 weeks; design: species or system human; details: male, human, in vivo, 24 weeks
Description: In certain embodiments, the symptom may be an adverse event of special interest (AESI). In this context, AESIs are prespecified based on pre-defined MedDRA search criteria for eleven AESI categories for the corticosteroid class and then further stratified into AESI of at least moderate severity. The symptoms for treating DMD with corticosteroids include, but is not limited to, behavior adverse events, blood glucose related problems, gastrointestinal symptoms, increased arterial blood pressure, immune suppression/infections, skin/hair changes, cataracts/glaucoma, cushingoid features, weight gain, bone fractures, slow growth.
(§1) The second period of 24 weeks, where all participants receive vamorolone treatment on either of the two dose levels, will continue to capture additional longer-term safety and tolerability data.

[5] = Growth (height percentile) and BMI vs external comparators; format: in vivo, human; details: CINRG prednisone trial, 0.75 mg/kg/day daily; for Mean BMI z-score, change from baseline (SD) / Mean BMI z-score, baseline value (SD): 0.75 mg/kg/day
Description: As with the CINRG DNHS comparators, group-matching criteria were prespecified in the iSAP, and 2 independent statisticians carried out the participant matching. […] There was no corresponding 12-month assessment in vamorolone-treated participants. (Assessments of vamorolone-treated trial participants were 0, 3, 6, and 18 months).
Standing height and weight were assessed at each study visit. Height z-score, body mass index (BMI; kg/m^2), and BMI z-score were calculated centrally. AE reporting was done per protocol in the vamorolone trials.
The current study is the first to evaluate the longer-term tolerability, efficacy, and safety of vamorolone in DMD. […] Given the variable timing of dose escalations, it was prespecified that initial analyses of drug-related efficacy and safety would be limited to those participants who had 18 months of treatment with 2.0 mg/kg/day vamorolone or more (dose group C+dose group D; n=23). Outcomes for these participants were compared to a group-matched cohort from the CINRG DNHS over 18 months (corticosteroid-naïve, n=19; corticosteroid-treated, n=68). Participants were matched for age and treatment period (±1 month), matching criteria were prespecified in the statistical analysis plan. Two independent statisticians carried out the matching.
Participants in the corticosteroid-treated CINRG DNHS group were treated for at least 18 months, but the total duration, dose, and regimens varied.

[6] = system: osteocalcin, P1NP, CTX; experiment: VBP15-004 bone turnover biomarkers; format: in vivo, human
[7] = VBP15-004 adverse events, Treatment Period 2 / cross-over; format: in vivo, human; details: on prednisone (to Week 24), subjects later switched to vamorolone 6 mg/kg/day
Description: (§2) Subjects already on vamorolone continued on the allocated dose level. Efficacy at Week 48 was assessed by Time to Stand ([…]) velocity, 6-Minute Walk Test (6MWT), Time to Run/Walk 10 meters (TTRW) velocity, and North Star Ambulatory Assessment (NSAA). […] In contrast, the persistence of effects with vamorolone 2 mg/kg/day was less pronounced for some parameters. The safety profile was consistent for subjects who continued on the same dose of vamorolone throughout the study, with no increase in frequency or severity of adverse events being observed over time. […] In addition, vamorolone treatment at both doses reversed the growth impairment seen during prednisone treatment and was associated with fewer adverse events, including those associated with corticosteroid use.

[8] = system: boys with DMD; experiment: VBP15-004 efficacy at Week 48; format: in vivo, human; details: prednisone, Treatment Period 1
Description: as §2

[9] = VBP15-004 height and BMI z-scores, 24 to 48 weeks; format: in vivo, human; details: for BMI mean z-score: prednisone
Description: as §1
Subjects already on vamorolone continued on the allocated dose level. Efficacy at Week 48 was assessed by Time to Stand (TTSTAND) velocity, 6-Minute Walk Test (6MWT), Time to Run/Walk 10 meters (TTRW) velocity, and North Star Ambulatory Assessment (NSAA). […] In contrast, the persistence of effects with vamorolone 2 mg/kg/day was less pronounced for some parameters. The safety profile was consistent for subjects who continued on the same dose of vamorolone throughout the study, with no increase in frequency or severity of adverse events being observed over time. […] In addition, vamorolone treatment at both doses reversed the growth impairment seen during prednisone treatment and was associated with fewer adverse events, including those associated with corticosteroid use.

[10] = Griggs et al. 2016, 0.9 mg/kg/day deflazacort, 0.75 mg/kg/day prednisone

SMILES: CC(=O)OCC(=O)[C@@]12N=C(C)O[C@@H]1C[C@H]1[C@@H]3CCC4=CC(=O)C=C[C@]4(C)[C@H]3[C@@H](O)C[C@@]12C [Deflazacort, deflazacort]
Incidence of Cushingoid ([1]; CINRG DNHS): 72%
Incidence of behavior change ([1]; CINRG DNHS): 33%
Incidence of weight gain ([1]; CINRG DNHS): 63%
Incidence of Cushingoid [1, 10]: 60.3%
Incidence of behavior change [1, 10]: 9%
Incidence of hypertrichosis/hirsutism [1, 10]: 35%
Incidence of weight gain [1, 10]: 27.9%
change in height percentiles for age [2]: −11.4
change in height percentiles for age ([2]; listed as deflazacort): −11.43
activity at the mineralocorticoid receptor [3]: agonists

Mean BMI z-score, value (SD) at 12 months ([5]; 12 months): 1.068 (1.05)
Mean height percentile for age, change from baseline (SD) ([5]; 12 months): −3.76 (10.44)
Mean height percentile for age, value (SD) at 12 months ([5]; 12 months): 26.14 (24.21)
Mean BMI z-score, change from baseline (SD) ([5]; 12 months): 0.459 (0.407)
Mean BMI z-score, change from baseline (SD) ([5]; 12 months, listed as prednisone): 0.46
Mean height percentile for age, baseline value (SD) ([5]; baseline): 29.89 (29.15)
Mean BMI z-score, baseline value (SD) ([5]; baseline): 0.61 (1.27)
Mean BMI z-score, baseline value (SD) ([5]; baseline, listed as prednisone): 0.61
Osteocalcin, mean (SEM) change at Week 24 [6]: −15.2 (2.7) ng/ml
Procollagen 1 N-Terminal Propeptide (P1NP), mean (SEM) change at Week 24 ([6]; Prednisone 0.75 mg): −134 (22) ng/mL
Type I Collagen C-Telopeptides (CTX), mean (SEM) change at Week 24 ([6]; Prednisone 0.75 mg): −300 (43) pg/mL
effect on bone biomarkers (osteocalcin, PINP, CTX) ([6]; Week 24, vamorolone 2.0 and 6.0 mg/kg): strongly reduce all bone biomarkers
height (z-score), absolute value, Mean ([9]; PDN/VAM 6 mg, Week 24): −0.38
change in height Z scores ([9]; prednisone 0.75 mg/kg/day, baseline to Week 24): growth deceleration
BMI mean z-score ([9]; end of Treatment Period 1): 1.40
BMI mean z-score ([9]; start of Treatment Period 1): 0.94
SMILES: C[C@]12C=CC(=O)C=C1CC[C@@H]1[C@@H]2C(=O)C[C@@]2(C)[C@H]1CC[C@]2(O)C(=O)CO [Prednisone, prednisone]
AESIs of at least moderate severity, F [4]: 15
Abnormal behavior, any severity, F [4]: 2
Abnormal behavior, moderate/severe, F [4]: 1
Aggression, any severity, F [4]: 3
Aggression, moderate/severe, F [4]: 2
All AESIs, F [4]: 69
All TEAEs, F [4]: 120
Anger, any severity, F [4]: 1
Any Behavior AESI, any severity, F [4]: 16
Any Behavior AESI, moderate/severe, F [4]: 8
Clinically relevant AEs, F [4]: 19
Emotional disorder, any severity, F [4]: 1
Emotional disorder, moderate/severe, F [4]: 1
Initial insomnia, any severity, F [4]: 1
Irritability, any severity, F [4]: 1
Mood swings, any severity, F [4]: 2
Mood swings, moderate/severe, F [4]: 1
Personality change, any severity, F [4]: 1
Personality change, moderate/severe, F [4]: 1
Psychomotor hyperactivity, any severity, F [4]: 3
Psychomotor hyperactivity, moderate/severe, F [4]: 1
Severe TEAEs (CTCAE Grade ≥3), F [4]: 1
Sleep disorder, any severity, F [4]: 1
Sleep disorder, moderate/severe, F [4]: 1
TEAEs leading to discontinuation, F [4]: 1
clinically relevant psychiatric events, subjects [4]: 19.4%
moderate/severe behavior problems, subjects [4]: 22.6%
number of adverse events [7]: 70
number of adverse events reported as behavioral disorders [7]: 15
number of adverse events typically associated with corticosteroids [7]: 40
6MWT distance [8]: 407 meters
NSAA [8]: 25.6 points
TTRW velocity [8]: 2.20 m/s
TTSTAND velocity [8]: 0.28 rises/s
activity at the mineralocorticoid receptor [3]: agonists
